Laboratory results taken from the Kinase Knowledgebase extract (Sharma et al. 2016).
pIC50: −log10 of the molar value. In brackets after ≈: the same amount, converted by molar mass. Several values for one entry are separate records, joined by “and”; a condition that tells them apart may be missing. Identical values can stand only once.

Tests used:
[1] = molecular target: EGFR (human) (UniProt P00533); settings: mda435
[2] = molecular target: EGFR (human) (UniProt P00533); settings: a431
[3] = molecular target: EGFR (human) (UniProt P00533); settings: skbr3
[4] = molecular target: EGFR (human) (UniProt P00533); settings: a2780s
[5] = molecular target: EGFR (human) (UniProt P00533); settings: a2780ddp
[6] = molecular target: EGFR (human) (UniProt P00533); settings: sw 620
[7] = molecular target: EGFR (human) (UniProt P00533); settings: lox
[8] = molecular target: EGFR (human) (UniProt P00533); settings: mcf-7
[9] = molecular target: EGFR (human) (UniProt P00533); settings: 3t3
[10] = molecular target: EGFR (human) (UniProt P00533); settings: her2/3t3
[11] = molecular target: EGFR (UniProt P00533)
Sequence of EGFR (P00533 whole entry, looked up): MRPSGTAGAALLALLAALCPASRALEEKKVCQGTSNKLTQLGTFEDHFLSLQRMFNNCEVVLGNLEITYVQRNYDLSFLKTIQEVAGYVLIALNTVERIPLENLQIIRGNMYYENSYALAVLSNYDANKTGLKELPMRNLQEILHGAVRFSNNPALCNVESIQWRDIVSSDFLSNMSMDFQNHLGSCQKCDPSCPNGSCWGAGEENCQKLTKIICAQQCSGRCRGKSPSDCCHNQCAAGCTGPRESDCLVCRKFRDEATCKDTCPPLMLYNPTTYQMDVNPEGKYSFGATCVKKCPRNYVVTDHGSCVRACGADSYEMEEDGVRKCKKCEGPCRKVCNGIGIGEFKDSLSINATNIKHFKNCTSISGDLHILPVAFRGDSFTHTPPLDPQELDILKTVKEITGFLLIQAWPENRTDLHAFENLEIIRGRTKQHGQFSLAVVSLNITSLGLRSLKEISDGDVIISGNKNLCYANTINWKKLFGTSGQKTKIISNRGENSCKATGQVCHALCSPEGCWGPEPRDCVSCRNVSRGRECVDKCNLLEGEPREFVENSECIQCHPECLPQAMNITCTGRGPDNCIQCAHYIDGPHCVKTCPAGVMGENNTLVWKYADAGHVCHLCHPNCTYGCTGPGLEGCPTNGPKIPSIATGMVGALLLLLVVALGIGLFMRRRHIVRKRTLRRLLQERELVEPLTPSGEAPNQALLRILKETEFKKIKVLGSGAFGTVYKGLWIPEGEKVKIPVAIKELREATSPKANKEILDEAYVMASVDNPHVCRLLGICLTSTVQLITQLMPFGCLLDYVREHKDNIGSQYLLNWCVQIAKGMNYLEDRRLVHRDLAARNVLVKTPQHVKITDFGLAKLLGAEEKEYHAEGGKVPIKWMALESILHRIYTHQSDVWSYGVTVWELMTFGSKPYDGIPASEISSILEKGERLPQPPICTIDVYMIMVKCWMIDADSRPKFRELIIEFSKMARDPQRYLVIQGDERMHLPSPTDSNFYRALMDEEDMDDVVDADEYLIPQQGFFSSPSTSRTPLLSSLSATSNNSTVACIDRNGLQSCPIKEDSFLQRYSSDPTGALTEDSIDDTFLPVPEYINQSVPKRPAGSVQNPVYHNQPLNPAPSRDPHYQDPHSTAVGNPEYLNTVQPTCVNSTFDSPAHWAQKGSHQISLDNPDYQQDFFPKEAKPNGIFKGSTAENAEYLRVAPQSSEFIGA

Sequence of EGFR (human) (P00533 whole entry, looked up): as above

Row | SMILES | IC50 [1] [µg/mL] | IC50 [2] | IC50 [3] [µg/mL] | IC50 [4] [µg/mL] | IC50 [5] [µg/mL] | IC50 [6] [µg/mL] | IC100 [2] [µM] | IC50 [7] [µg/mL] | pIC50 [8] | IC50 [9] | IC50 [10] | pIC50 [11]
1 | C[Si](C)(C)C#Cc1cc2c(Nc3cccc(Br)c3)c(C#N)cnc2cn1 | 4.2 (≈ 9.97 µM) | 3.06 µg/mL (≈ 7.25 µM) | 3.59 (≈ 8.52 µM) | 2.34 (≈ 5.56 µM) | 2.97 (≈ 7.05 µM) | 4.72 (≈ 11.2 µM) | – | – | – | – | – | –
2 | CNc1cc2c(Nc3cccc(Br)c3)c(C#N)cnc2cn1 | 0.98 (≈ 2.77 µM) | 0.31 µg/mL and 0.209 µg/mL | 1.88 (≈ 5.3 µM) | – | – | 4.62 (≈ 13 µM) | 0.59 | 3.6 (≈ 10.2 µM) | 4.96 and 5.41 | – | – | –
3 | N#Cc1cnc2cnc(NCCN3CCOCC3)cc2c1Nc1cccc(Br)c1 | 49 (≈ 108 µM) | 0.5 µg/mL (≈ 1.1 µM) | – | 0.5 (≈ 1.1 µM) | – | 41 (≈ 90.4 µM) | – | 57 (≈ 126 µM) | – | – | – | –
4 | CN(C)C/C=C/C(=O)Nc1cc2c(Nc3cccc(Br)c3)c(C#N)cnc2cn1 | 0.464 (≈ 1.03 µM) | 0.088 µg/mL (≈ 0.195 µM) | 0.0357 (≈ 0.079 µM) | – | – | 0.356 (≈ 0.789 µM) | – | – | – | 0.272 µg/mL and 0.373 µg/mL | 0.106 µg/mL and 0.0436 µg/mL | –
5 | CN(C)c1cc[n+](-c2cc3c(Nc4cccc(Br)c4)c(C#N)cnc3cn2)cc1 | 47 | 59 µg/mL | 41 | 31 | 52 | 42 | – | 56 | – | – | – | –
6 | CN(C)C/C=C/C(=O)Nc1cnc2ncc(C#N)c(Nc3cccc(Br)c3)c2c1 | > 5 | 2.76 µg/mL (≈ 6.12 µM) | 4.83 (≈ 10.7 µM) | 1.77 (≈ 3.92 µM) | 4 (≈ 8.87 µM) | > 5 | – | – | – | – | – | < 6.10
7 | N#Cc1cnc2cnc(F)cc2c1Nc1cccc(Br)c1 | > 5 | 3.92 µg/mL (≈ 11.4 µM) | > 5 | 3.33 (≈ 9.7 µM) | > 5 | > 5 | – | – | – | – | – | –
8 | CC#CC(=O)Nc1cc2c(Nc3cccc(Br)c3)c(C#N)cnc2cn1 | 0.88 (≈ 2.17 µM) | 0.23 µg/mL (≈ 0.566 µM) | 0.12 (≈ 0.295 µM) | – | 0.13 (≈ 0.32 µM) | 0.17 (≈ 0.418 µM) | – | 0.07 (≈ 0.172 µM) | 6.01 and 6.40 | – | – | –
9 | CN(C)CCOc1cc2c(Nc3ccc(F)c(Cl)c3)c(C#N)cnc2cn1 | > 5 | 2.23 µg/mL (≈ 5.77 µM) | 4.63 (≈ 12 µM) | – | – | > 5 | – | – | – | 4.48 µg/mL (≈ 11.6 µM) | > 5 µg/mL | –
10 | COc1ccc(CNc2cc3c(Nc4cccc(Br)c4)c(C#N)cnc3cn2)cc1 | 2.4 (≈ 5.21 µM) | 0.4 µg/mL (≈ 0.869 µM) | 2.9 (≈ 6.3 µM) | 1 (≈ 2.17 µM) | 1.8 (≈ 3.91 µM) | 4.1 (≈ 8.91 µM) | – | – | – | – | – | –
11 | CC#CC(=O)Nc1cnc2ncc(C#N)c(Nc3ccc(F)c(Cl)c3)c2c1 | – | – | – | – | – | – | – | – | – | – | – | < 7.00
12 | N#Cc1cnc2cnc(N)cc2c1Nc1cccc(Br)c1 | > 5 | 0.4 µg/mL (≈ 1.18 µM) | 4.1 (≈ 12.1 µM) | 3.5 (≈ 10.3 µM) | 3.1 (≈ 9.11 µM) | > 5 | – | – | – | – | – | –
